Series [1] can be described thus: Cmax in chronic myeloid leukemia patient. It is filed as ADME, organism-based. The settings on record: human, in vivo.
A short description of series [2]: Antiproliferative activity against human CML cells. It is filed as functional, cell-based. To be noted: Leukemia cell.
A short description of series [3]: Half life in chronic myeloid leukemia patient. To be noted: human, in vivo. It is filed as ADME, organism-based.

SMILES strings stand for the structures.

In turn, `Cc1nc(Nc2ncc(C(=O)Nc3c(C)cccc3Cl)s2)cc(N2CCN(CCO)CC2)n1.O` [DASATINIB] showed a Cmax in series [1] of 0.2 µM. Moreover, the IC50 in series [2] is 0.001 µM. In addition, the half-life in series [3] was 3 h.
In series [1], `Cc1ccc(NC(=O)c2ccc(CN3CCN(C)CC3)cc2)cc1Nc1nccc(-c2cccnc2)n1` [IMATINIB] displayed a Cmax of 2 µM. This molecule had a concentration for half-maximal inhibition (IC50) in series [2] of 0.35 µM.

Values taken from ChEMBL document CHEMBL1212712, “A pulse at the heart of targeted therapy” (Nat Chem Biol, 2009).
